Source: ChEMBL document CHEMBL5303573, “Mapping human microbiome drug metabolism by gut bacteria and their genes” (Nature, 2019)

Key:
[1] = bacteroides intestinalis, 12 h, 2 µM
Description: The drug is tested on Bacteroides intestinalis strain: DSM17393 for biotransformation. The drug concentrations were measured before and after a 12-h incubation by liquid-chromatography-coupled mass spectrometry (LC–MS)

[2] = The drug is tested on Bacteroides pectinophilus strain: ATCC43243 for biotransformation. The drug concentrations were measured before and after a 12-h incubation by liquid-chromatography-coupled mass spectrometry (LC–MS); conditions: 2 µM
[3] = The drug is tested on Collinsella aerofaciens strain: ATCC25986 for biotransformation. The drug concentrations were measured before and after a 12-h incubation by liquid-chromatography-coupled mass spectrometry (LC–MS); conditions: 2 µM
[4] = parabacteroides distasonis, 12 h, 2 µM
Description: The drug is tested on Parabacteroides distasonis strain: ATCC8503 for biotransformation. The drug concentrations were measured before and after a 12-h incubation by liquid-chromatography-coupled mass spectrometry (LC–MS)

[5] = The drug is tested on Bacteroides ovatus strain: ATCC8483 for biotransformation. The drug concentrations were measured before and after a 12-h incubation by liquid-chromatography-coupled mass spectrometry (LC–MS); conditions: 2 µM
[6] = The drug is tested on Bifidobacterium longum subsp. Infantis strain: CCUG52486 for biotransformation. The drug concentrations were measured before and after a 12-h incubation by liquid-chromatography-coupled mass spectrometry (LC–MS); conditions: 2 µM
[7] = The drug is tested on Ruminococcus gnavus strain: ATCC29149 for biotransformation. The drug concentrations were measured before and after a 12-h incubation by liquid-chromatography-coupled mass spectrometry (LC–MS); conditions: mediterraneibacter gnavus, 2 µM

Compound | Bacterial Biotransformation [1] | Bacterial Biotransformation [2] | Bacterial Biotransformation [3] | Bacterial Biotransformation [4] | Bacterial Biotransformation [5] | Bacterial Biotransformation [6] | Bacterial Biotransformation [7]
CC[C@H](C)C(=O)O[C@H]1CCC=C2C=C[C@H](C)[C@H](CC[C@@H]3C[C@@H](O)CC(=O)O3)[C@H]21 [MEVASTATIN] | Compound metabolized | Compound metabolized | Compound metabolized | Compound metabolized | Compound metabolized | Compound metabolized | Compound metabolized
CN(C)CCc1c[nH]c2ccc(CS(=O)(=O)N3CCCC3)cc12 [ALMOTRIPTAN] | Compound NOT metabolized | Compound NOT metabolized | Compound NOT metabolized | Compound NOT metabolized | Compound NOT metabolized | Compound NOT metabolized | Compound NOT metabolized
CN1CCC[C@@H]1CCO[C@](C)(c1ccccc1)c1ccc(Cl)cc1.O=C(O)/C=C/C(=O)O [CLEMASTINE FUMARATE] | Compound NOT metabolized | Compound metabolized | Compound NOT metabolized | Compound metabolized | Compound NOT metabolized | Compound NOT metabolized | Compound NOT metabolized
CN1CCN(CC/C=C2/c3ccccc3Sc3ccc(S(=O)(=O)N(C)C)cc32)CC1 [THIOTHIXENE] | Compound NOT metabolized | Compound NOT metabolized | Compound metabolized | Compound metabolized | Compound NOT metabolized | Compound NOT metabolized | Compound NOT metabolized
CCCC1O[C@@H]2C[C@H]3[C@@H]4CCC5=CC(=O)C=C[C@]5(C)[C@H]4[C@@H](O)C[C@]3(C)[C@]2(C(=O)CO)O1 (stereo partly drawn) [BUDESONIDE] | Compound NOT metabolized | Compound NOT metabolized | Compound NOT metabolized | Compound NOT metabolized | Compound NOT metabolized | Compound NOT metabolized | Compound NOT metabolized
COc1ccc2[nH]c([S+]([O-])Cc3ncc(C)c(OC)c3C)nc2n1 (stereo not drawn) [TENATOPRAZOLE] | Compound metabolized | Compound metabolized | Compound metabolized | Compound metabolized | Compound metabolized | Compound metabolized | Compound metabolized
CNCCC(Oc1ccc(C(F)(F)F)cc1)c1ccccc1 (stereo not drawn) [FLUOXETINE] | Compound metabolized | Compound metabolized | Compound metabolized | Compound metabolized | Compound metabolized | Compound metabolized | Compound metabolized
COC(=O)[C@H](c1ccccc1Cl)N1CCc2sccc2C1.O=S(=O)(O)O [CLOPIDOGREL BISULFATE] | Compound NOT metabolized | Compound NOT metabolized | Compound NOT metabolized | Compound metabolized | Compound metabolized | Compound NOT metabolized | Compound NOT metabolized
CN(C)C(=O)Oc1cc(OC(=O)N(C)C)cc(C(O)CNC(C)(C)C)c1 (stereo not drawn) [BAMBUTEROL] | Compound NOT metabolized | Compound NOT metabolized | Compound NOT metabolized | Compound NOT metabolized | Compound NOT metabolized | Compound NOT metabolized | Compound NOT metabolized
NS(=O)(=O)c1cc2c(cc1Cl)N=C(CSCc1ccccc1)NS2(=O)=O [BENZTHIAZIDE] | Compound NOT metabolized | Compound NOT metabolized | Compound NOT metabolized | Compound NOT metabolized | Compound NOT metabolized | Compound NOT metabolized | Compound NOT metabolized
CC(C)C[C@H]1C(=O)N2CCC[C@H]2[C@]2(O)O[C@](NC(=O)[C@@H]3C=C4c5cccc6[nH]c(Br)c(c56)C[C@H]4N(C)C3)(C(C)C)C(=O)N12.CS(=O)(=O)O [BROMOCRIPTINE MESYLATE] | Compound metabolized | Compound metabolized | Compound metabolized | Compound metabolized | Compound metabolized | Compound metabolized | Compound metabolized
CC[C@@H](CO)NC(=O)[C@@H]1C=C2c3cccc4c3c(cn4C)C[C@H]2N(C)C1.O=C(O)/C=C\C(=O)O [METHYSERGIDE MALEATE] | Compound metabolized | Compound metabolized | Compound metabolized | Compound metabolized | Compound metabolized | Compound metabolized | Compound metabolized
CN1C(=O)CCS(=O)(=O)C1c1ccc(Cl)cc1 (stereo not drawn) [CHLORMEZANONE] | Compound NOT metabolized | Compound NOT metabolized | Compound NOT metabolized | Compound NOT metabolized | Compound NOT metabolized | Compound NOT metabolized | –
CC(C(=O)O)c1ccc2c(c1)Cc1cccnc1O2 (stereo not drawn) [PRANOPROFEN] | Compound metabolized | Compound metabolized | Compound NOT metabolized | Compound metabolized | Compound metabolized | Compound metabolized | Compound NOT metabolized
CCc1oc2ccccc2c1C(=O)c1cc(Br)c(O)c(Br)c1 [BENZBROMARONE] | Compound NOT metabolized | Compound NOT metabolized | Compound NOT metabolized | Compound NOT metabolized | Compound NOT metabolized | Compound NOT metabolized | Compound NOT metabolized
COc1ccc2[nH]c([S+]([O-])Cc3ncc(C)c(OC)c3C)nc2c1 (stereo not drawn) [OMEPRAZOLE] | Compound metabolized | Compound metabolized | Compound metabolized | Compound metabolized | Compound metabolized | Compound metabolized | Compound metabolized
CN1CCc2cccc3c2[C@H]1Cc1ccc(O)c(O)c1-3 [APOMORPHINE] | Compound NOT metabolized | Compound NOT metabolized | Compound NOT metabolized | Compound NOT metabolized | Compound NOT metabolized | Compound NOT metabolized | Compound NOT metabolized
CNC(=C[N+](=O)[O-])NCCSCc1ccc(CN(C)C)o1 [RANITIDINE] | Compound NOT metabolized | Compound metabolized | Compound metabolized | Compound NOT metabolized | Compound NOT metabolized | Compound metabolized | Compound metabolized
N[C@@H](Cc1ccc(N(CCCl)CCCl)cc1)C(=O)O | Compound metabolized | Compound metabolized | Compound metabolized | Compound metabolized | Compound metabolized | Compound metabolized | Compound metabolized
Clc1cccc(Cl)c1N=C1NCCN1 [CLONIDINE] | Compound NOT metabolized | Compound NOT metabolized | Compound NOT metabolized | Compound NOT metabolized | Compound metabolized | Compound NOT metabolized | Compound NOT metabolized
CN1CCC(=C2c3ccccc3CCc3cccnc32)CC1.O=C(O)/C=C\C(=O)O.O=C(O)/C=C\C(=O)O [AZATADINE MALEATE] | Compound NOT metabolized | Compound NOT metabolized | Compound NOT metabolized | Compound NOT metabolized | Compound NOT metabolized | Compound NOT metabolized | Compound NOT metabolized
COc1cc(NC(C)CCCN)c2ncccc2c1.O=P(O)(O)O.O=P(O)(O)O (stereo not drawn) [PRIMAQUINE PHOSPHATE] | – | Compound metabolized | Compound metabolized | Compound metabolized | Compound metabolized | Compound metabolized | Compound NOT metabolized
NC12CC3CC(CC(C3)C1)C2 [AMANTADINE] | – | Compound NOT metabolized | Compound NOT metabolized | Compound NOT metabolized | Compound NOT metabolized | Compound NOT metabolized | Compound NOT metabolized
